In ChEMBL document CHEMBL3817792, “Targeting the Motion of Shikimate Kinase: Development of Competitive Inhibitors that Stabilize an Inactive Open Conformation of the Enzyme” (J Med Chem, 2016):

Tests used:
Shikimate kinase = Shikimate kinase (Helicobacter pylori (strain ATCC 700392 / 26695) (Campylobacterpylori), UniProt P56073); assay: Inhibition of Helicobacter pylori shikimate kinase using shikimic acid substrate by measuring oxidation of NADH to NAD by pyruvate kinase and lactate dehydrogenase coupled enzyme assay based Dixon plot analysis
[1] = Inhibition of Mycobacterium tuberculosis shikimate kinase using shikimic acid substrate by measuring oxidation of NADH to NAD by pyruvate kinase and lactate dehydrogenase coupled enzyme assay based Dixon plot analysis
Helicobacter pylori = assay: Antimicrobial activity against Helicobacter pylori clinical isolates assessed as inhibition of visible microbial growth incubated for 6 days by agar dilution method; format: functional; details: 144 h
[2] = Inhibition of Mycobacterium tuberculosis shikimate kinase

Chain of Shikimate kinase (P56073 whole entry): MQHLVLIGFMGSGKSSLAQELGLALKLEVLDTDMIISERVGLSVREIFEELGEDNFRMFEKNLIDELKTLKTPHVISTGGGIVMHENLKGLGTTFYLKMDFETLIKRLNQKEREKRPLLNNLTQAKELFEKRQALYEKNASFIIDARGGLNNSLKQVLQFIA

| Compound | Ki (Shikimate kinase) | Ki [1] | MIC (Helicobacter pylori) | Ki [2] |
| --- | --- | --- | --- | --- |
| O=C(O)C1=C[C@@H](O)[C@@H](O)[C@H](OCc2ccc3sccc3c2)C1 | 0.56 µM | 43 µM |  |  |
| O=C(O)C1=C[C@@H](O)[C@@H](O)[C@H](OCc2c(F)c(F)c(F)c(F)c2F)C1 | 41 µM | 710 µM |  |  |
| CC1(C)S[C@@H]2[C@H](NC(=O)[C@H](N)c3ccccc3)C(=O)N2[C@H]1C(=O)O [AMPICILLIN] |  |  | 1 µg/mL |  |
| Cc1ccc(CO[C@@H]2CC(C(=O)O)=C[C@@H](O)[C@H]2O)cc1 | 10.9 µM | 166 µM |  |  |
| O=C(O)C1=C[C@@H](O)[C@@H](O)[C@H](n2cc(COc3ccccc3)nn2)C1 | 67 µM | > 2000 µM |  |  |
| COC(=O)C1=C[C@@H](O)[C@H](O)[C@H](OCc2cccc([N+](=O)[O-])c2)C1 |  |  | 128 µg/mL |  |
| N[C@H]1C=C(C(=O)O)C[C@@H](O)[C@@H]1O |  |  |  | 65 µM |
| O=C(O)C1=C[C@@H](O)[C@@H](O)[C@H](n2cc(Cc3ccccc3)nn2)C1 | 95 µM | > 2000 µM |  |  |
| COC(=O)C1=C[C@H](N)[C@@H](O)[C@H](OCc2ccc3ccccc3c2)C1 |  |  | 64 µg/mL |  |
| O=C(O)C1=C[C@@H](O)[C@@H](O)[C@H](OCc2ccc3ccccc3c2)C1 | 1.8 µM | 22 µM |  |  |
| O=C(O)C1=C[C@@H](O)[C@@H](O)[C@H](OCc2cccc(F)c2)C1 | 1.28 µM | 180 µM |  |  |
| COC(=O)C1=C[C@H](N)[C@@H](O)[C@H](OCc2ccc3sccc3c2)C1 |  |  | 256 µg/mL |  |
| COC(=O)C1=C[C@@H](O)[C@@H](O)[C@H](n2cc(COc3ccccc3)nn2)C1 |  |  | 128 µg/mL |  |
| O=C(O)C1=C[C@@H](O)[C@@H](O)[C@H](OCc2cccc([N+](=O)[O-])c2)C1 | 0.46 µM | 10 µM |  |  |
| Cc1cccc(CO[C@@H]2CC(C(=O)O)=C[C@@H](O)[C@H]2O)c1 | 2.1 µM | 109 µM |  |  |
| N[C@H]1C=C(C(=O)O)C[C@@H](OCc2ccc3ccccc3c2)[C@@H]1O | > 800 µM | > 2000 µM |  |  |
| O=C(O)C1=C[C@@H](O)[C@@H](O)[C@H](OCc2ccccc2)C1 | 3 µM | 360 µM |  |  |
| COc1cccc(CO[C@@H]2CC(C(=O)O)=C[C@@H](O)[C@H]2O)c1 | 1 µM | 135 µM |  |  |
| COC(=O)C1=C[C@@H](O)[C@@H](O)[C@H](OCc2ccc3sccc3c2)C1 |  |  | 4 µg/mL |  |
| COC(=O)C1=C[C@@H](O)[C@@H](O)[C@H](n2cc(Cc3ccccc3)nn2)C1 |  |  | 256 µg/mL |  |
| N[C@H]1C=C(C(=O)O)C[C@@H](OCc2ccc3sccc3c2)[C@@H]1O | 535 µM | 415 µM |  |  |
